Data from patent US20240293413A1, “COMPOUND AND METHOD FOR TREATING CHEMOTHERAPY-RELATED GASTROINTESTINAL SIDE EFFECTS” (ONQUALITY PHARMACEUTICALS CHINA LTD., priority 2021, published 2024).

Columns and labels:
Type in all cases: in vivo
[1] = test system: Chemotherapeutic agent-caused diarrhea models of Balb/c mice; experiment: Examples 1-229 (Table 3): oral CDK inhibitor, relief of diarrhea caused by a chemotherapeutic agent;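 note: percent of treated mice whose diarrhea grade fell below chemotherapy-group average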
[2] = test system: diarrhea caused by a chemotherapeutic agent in Balb/c mice; experiment: Examples 230-271 (Table 4): oral CDK inhibitor, relief of diarrhea caused by a chemotherapeutic agent
Excerpt: Balb/c mice were fed for 1 week, and then divided into groups. The experiment was divided into a control group, a chemotherapeutic agent group, and a CDK inhibitor group, each of which comprised 10 mice, to perform the administration experiment, for which the administration dosage, mode, time and frequency were shown in Table 4. The control group: being intragastrically administered with the same solvent as that used in the CDK inhibitor group (the time was shown in Table 4), and then being injected/intragastrically administered with the same solvent as that used in the chemotherapeutic agent group (the administration mode was shown in Table 4): the chemotherapeutic agent group: being intragastrically administered with the same solvent as that used in the CDK inhibitor group (the time was shown in Table 4), and then being injected/intragastrically administered with the chemotherapeutic agent (the type, administration mode and dosage were shown in Table 4): the CDK inhibitor group: being intragastrically administered with the CDK inhibitor (the time was shown in Table 4), and then being administered with the chemotherapeutic agent (the mode and dosage were shown in Table 4).
(§1) The diarrhea grading of mice was observed and recorded every day.

[3] = test system: diarrhea caused by a chemotherapeutic agent in Balb/c mice; experiment: Examples 343-381 (Table 6): oral versus intravenous CDK inhibitor, relief of diarrhea caused by a chemotherapeutic agent; details: cycle 10 days;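 note: percent of treated mice whose diarrhea grade fell below chemotherapy-group average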
Excerpt: Balb/c mice were fed for 1 week, and then divided into groups. The experiment was divided into a control group, a chemotherapeutic agent group, and an oral administration group of a CDK inhibitor, and an intravenous injection group of a CDK inhibitor, each of which comprised 10 mice, to perform the administration experiment, for which the administration dosage, mode, time and frequency were shown in Table 6. The control group: being injected/intragastrically administered with the same solvent as that used in the CDK inhibitor group (the time was shown in Table 6), and then being injected/intragastrically administered with the same solvent as that used in the chemotherapeutic agent group (the administration mode was shown in Table 6): the chemotherapeutic agent group: being injected/intragastrically administered with the same solvent as that used in the CDK inhibitor group (the time was shown in Table 6), and then being injected/intragastrically administered with the chemotherapeutic agent (the type, administration mode and dosage were shown in Table 6): the oral administration group of the CDK inhibitor: being intragastrically administered with the CDK inhibitor (the time was shown in Table 6), and then being administered with the chemotherapeutic agent (the mode and dosage were shown in Table 6): the intravenous injection group of the CDK inhibitor: being injected with the CDK inhibitor through tail vein (the time was shown in Table 6), and then being administered with the chemotherapeutic agent (the mode and dosage were shown in Table 6).
as §1

[4] = test system: Chemotherapeutic agent-caused constipation models of Balb/c mice; experiment: Examples 272-342 (Table 5): oral CDK inhibitor, relief of constipation caused by a chemotherapeutic agent; details: Example 335; Cytarabine (Ara-C) oral administration 1000 mg/kg single; CDK inhibitor oral 60 mg/kg single, 24 h before; cycle 8 days;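 note: percent of treated mice relieved versus chemotherapy group by feces reduction rate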
Excerpt: Construction of mouse animal models: Chemotherapeutic agent-caused constipation models of Balb/c mice were constructed according to the administration mode and frequency of the chemotherapeutic agent as shown in Table 5.
Balb/c mice were fed for 1 week, and then divided into groups. The experiment was divided into a control group, a chemotherapeutic agent group, and a CDK inhibitor group, each of which comprised 10 mice, to perform the administration experiment, for which the administration dosage, mode, time and frequency were shown in Table 5. The control group: being intragastrically administered with the same solvent as that used in the CDK inhibitor group (the time was shown in Table 5), and then being injected/intragastrically administered with the same solvent as that used in the chemotherapeutic agent group (the administration mode was shown in Table 5): the chemotherapeutic agent group: being intragastrically administered with the same solvent as that used in the CDK inhibitor group (the time was shown in […]), and then being injected/intragastrically administered with the chemotherapeutic agent (the type, administration mode and dosage were shown in Table 5): the CDK inhibitor group: being intragastrically administered with the CDK inhibitor (the time was shown in Table 5), and then being administered with the chemotherapeutic agent (the mode and dosage were shown in Table 5).
Feces reduction rate (%)=(the control group−the chemotherapeutic agent group or the CDK inhibitor group)/the control group*100%
The feces amount of mice within 3 hours was observed and recorded every day.

CCc1cnn2c(NCc3ccc[n+]([O-])c3)cc(N3CCCC[C@H]3CCO)nc12 [Dinaciclib] was tested, and the “Relative remission rate (%)” value ([1]; Example 131, Docetaxel (DTX) intraperitoneal injection 10 mg/kg single, CDK inhibitor oral 40 mg/kg single 0.5 h before, cycle 8 days) was 10%, the “Relative remission rate (%)” value ([1]; Example 132, Docetaxel (DTX) intraperitoneal injection 10 mg/kg single, CDK inhibitor oral 40 mg/kg single 1 h before, cycle 8 days) was 10% and the “Relative remission rate (%)” value ([1]; Example 133, Docetaxel (DTX) intraperitoneal injection 10 mg/kg single, CDK inhibitor oral 40 mg/kg single 2 h before, cycle 8 days) was 20%. The “Relative remission rate (%)” value ([1]; Example 134, Docetaxel (DTX) intraperitoneal injection 10 mg/kg single, CDK inhibitor oral 40 mg/kg single 4 h before, cycle 8 days) was 20%, the “Relative remission rate (%)” value ([1]; Example 135, Docetaxel (DTX) intraperitoneal injection 10 mg/kg single, CDK inhibitor oral 40 mg/kg single 6 h before, cycle 8 days) was 30% and the “Relative remission rate (%)” value ([1]; Example 136, Docetaxel (DTX) intraperitoneal injection 10 mg/kg single, CDK inhibitor oral 40 mg/kg single 8 h before, cycle 8 days) was 30%. For the same compound, the “Relative remission rate (%)” value ([1]; Example 137, Docetaxel (DTX) intraperitoneal injection 10 mg/kg single, CDK inhibitor oral 40 mg/kg single 10 h before, cycle 8 days) was 30%, the “Relative remission rate (%)” value ([1]; Example 138, Docetaxel (DTX) intraperitoneal injection 10 mg/kg single, CDK inhibitor oral 40 mg/kg single 12 h before, cycle 8 days) was 20% and the “Relative remission rate (%)” value ([1]; Example 139, Docetaxel (DTX) intraperitoneal injection 10 mg/kg single, CDK inhibitor oral 40 mg/kg single 14 h before, cycle 8 days) was 20%. For the same compound, the “Relative remission rate (%)” value ([1]; Example 140, Docetaxel (DTX) intraperitoneal injection 10 mg/kg single, CDK inhibitor oral 40 mg/kg single 16 h before, cycle 8 days) was 40%, the “Relative remission rate (%)” value ([1]; Example 141, Docetaxel (DTX) intraperitoneal injection 10 mg/kg single, CDK inhibitor oral 40 mg/kg single 18 h before, cycle 8 days) was 30% and the “Relative remission rate (%)” value ([1]; Example 142, Docetaxel (DTX) intraperitoneal injection 10 mg/kg single, CDK inhibitor oral 40 mg/kg single 20 h before, cycle 8 days) was 30%. For the same compound, the “Relative remission rate (%)” value ([1]; Example 143, Docetaxel (DTX) intraperitoneal injection 10 mg/kg single, CDK inhibitor oral 40 mg/kg single 22 h before, cycle 8 days) was 20%, the “Relative remission rate (%)” value ([1]; Example 144, Docetaxel (DTX) intraperitoneal injection 10 mg/kg single, CDK inhibitor oral 40 mg/kg single 24 h before, cycle 8 days) was 10% and the “Relative remission rate (%)” value ([1]; Example 145, Docetaxel (DTX) intraperitoneal injection 10 mg/kg single, CDK inhibitor oral 40 mg/kg single 48 h before, cycle 8 days) was 0%. For the same compound, the “Relative remission rate (%)” value ([1]; Example 204, Gemcitabine 60 mg/kg and paclitaxel 10 mg/kg intraperitoneal injection single, CDK inhibitor oral 70 mg/kg single, 4 h before, 8 days) was 30%, the Relative remission rate ([2]; Example 240, Doxorubicin (Dox) intramuscular injection 10 mg/kg single, CDK inhibitor oral 40 mg/kg single, 0.5 h before, cycle 10 days) was 30% and the Relative remission rate ([2]; Example 241, Doxorubicin (Dox) intramuscular injection 10 mg/kg single, CDK inhibitor oral 40 mg/kg single, 12 h before, cycle 10 days) was 20%. The Relative remission rate ([2]; Example 242, Doxorubicin (Dox) intramuscular injection 10 mg/kg single, CDK inhibitor oral 40 mg/kg single, 24 h before, cycle 10 days) was 0%, the Relative remission rate ([3]; Example 368, Topotecan (TP) intravenous injection 10 mg/kg single, CDK inhibitor intravenous injection 40 mg/kg single, 0.5 h before) was 10% and the Relative remission rate ([3]; Example 368, Topotecan (TP) intravenous injection 10 mg/kg single, CDK inhibitor oral 40 mg/kg single, 0.5 h before) was 20%.

CN1CCC(c2c(O)cc(O)c3c(=O)cc(-c4ccccc4Cl)oc23)C1CO (stereo not shown) [Riviciclib] was tested, and the “Relative remission rate (%)” value ([1]; Example 35, Fluorouracil (5-Fu) intraperitoneal injection 125 mg/kg single, CDK inhibitor oral 65 mg/kg single 8 h before, cycle 10 days) was 40%, the “Relative remission rate (%)” value ([1]; Example 192, Gemcitabine (GEM) intravenous injection 120 mg/kg single, CDK inhibitor oral 180 mg/kg single, 6 h before, 8 days) was 70% and the “Relative remission rate (%)” value ([1]; Example 215, Fluorouracil 100 mg/kg and irinotecan 200 mg/kg intravenous injection single, CDK inhibitor oral 65 mg/kg single, 2 h before, 10 days) was 50%. The Relative remission rate ([2]; Example 262, Cytarabine (Ara-C) oral administration 1000 mg/kg single, CDK inhibitor oral single (dosage not given), 24 h before, cycle 8 days) was 20%, the Relative remission rate [4] was 20% and the Relative remission rate ([3]; Example 370, Topotecan (TP) oral administration 20 mg/kg single, CDK inhibitor intravenous injection 60 mg/kg single, 24 h before) was 10%. The Relative remission rate ([3]; Example 370, Topotecan (TP) oral administration 20 mg/kg single, CDK inhibitor oral 60 mg/kg single, 24 h before) was 30%.
